Three compounds from patent US20150038671A1, “Efficient Synthesis of CN2097 and RC7 and Their Analogs” (priority 2013, published 2015) can be followed below.

Starred links: 1 amine or outer side, 2 acyl side, 3 side chain; linkers in the order of their positions; H or OH if unused. Positions of bridges follow the written chain, without caps; N, C: chain ends. Non-standard residues stand in square brackets, D forms with d. Residues, ends and D or L forms follow the SMILES beside them. Chains are numbered I, II in the order given. Dmt = Cc1cc(O)cc(C)c1C[C@H](N)C(=O)O; X1 = O=C(CCN[*:2])[*:1]

The half-life is the time needed for the level to fall by half in the phase considered. A low value points to rapid decline.

The nature of this data set: Plasma stability (T1/2) in the blood plasma, HPLC analysis. Format: in vitro ADME. The settings on record: time by which the compound was degraded by enzyme to the 50% of original amount. As to the method: The stability of CN2097 and Szeto CN2097 derivatives in blood was determined as follows.
The detection limit of CN2097 was measured by HPLC analysis. Various concentrations of CN2097 were prepared in PBS and injected in HPLC and monitored at 214 nm. The HPLC analysis of CN2097 using 50 microliter injection and detecting up to 500 micromolar. The lowest level of detection was at 2 micromolar, corresponding to 0.1 nmole or 237.68 ng (FIG. 13).
The T1/2 is the time by which the compound was degraded by enzyme to the 50% of original amount.
`Cc1cc(O)cc(C)c1C[C@H](N)C(=O)N[C@H](CCCNC(=N)N)C(=O)N[C@@H](Cc1ccccc1)C(=O)N[C@@H](CCCCN)C(=O)N[C@@H](CSSC[C@H](N)C(=O)N[C@@H](CCCCN)C(=O)N[C@@H](CC(N)=O)C(=O)N[C@@H](Cc1ccc(O)cc1)C(=O)N[C@@H](CCCCN)C(=O)N[C@H]1CCCCNC(=O)CCNC(=O)CC[C@@H](C(=O)N[C@H](C(=O)O)C(C)C)NC(=O)[C@H]([C@@H](C)O)NC1=O)C(N)=O` [Sezto-CN] (I: H-CKNYKKTEV-OH / II: H-[Dmt][dR]FKC-NH2; disulfide I:1-II:5; linker I:6-I:8 via X1) had a half-life of approximately 43.2 min.
The same measure for `CC(C)[C@H](NC(=O)[C@@H]1CCC(=O)NCCC(=O)NCCCC[C@H](NC(=O)[C@H](CCCCN)NC(=O)[C@H](Cc2ccc(O)cc2)NC(=O)[C@H](CC(N)=O)NC(=O)[C@H](CCCCN)NC(=O)[C@@H](N)CSSC[C@H](N)C(=O)N[C@@H](CCCNC(=N)N)C(=O)N[C@@H](CCCNC(=N)N)C(=O)N[C@@H](CCCNC(=N)N)C(=O)N[C@@H](CCCNC(=N)N)C(=O)N[C@@H](CCCNC(=N)N)C(=O)N[C@@H](CCCNC(=N)N)C(=O)N[C@@H](CCCNC(=N)N)C(N)=O)C(=O)N[C@@H]([C@@H](C)O)C(=O)N1)C(=O)O` [CN2097] (I: H-CKNYKKTEV-OH / II: H-CRRRRRRR-NH2; disulfide I:1-II:1; linker I:6-I:8 via X1): approximately 48.2 min; for `CC(C)[C@H](NC(=O)[C@@H]1CCC(=O)NCCC(=O)NCCCC[C@H](NC(=O)[C@H](CCCCN)NC(=O)[C@H](Cc2ccc(O)cc2)NC(=O)[C@H](CC(N)=O)NC(=O)[C@H](CCCCN)NC(=O)[C@@H](N)CS)C(=O)N[C@@H]([C@@H](C)O)C(=O)N1)C(=O)O` [CN, Cys-Lys-Asn-Tyr-Lys-[Lys-Thr-Glu(β Ala)]-Val (NH2-CKNYK-[KTE(β-A)]V—OH)] (H-CKNYKKTEV-OH; linker 6-8 via X1): approximately 28 min.
